Assay results published in PMC3827244, “An Ultrasensitive High Throughput Screen for DNA Methyltransferase 1-Targeted Molecular Probes” (PLoS ONE, 2013).
Where two headings read alike, the source gives them in different places.

Key:
[1] = molecular target: T1, DNMT1 (amino acids 621–1616) (Homo sapiens, UniProt P26358); experiment: Detergent test, endonuclease-coupled DNA methylation assay; assay type: biochemical; details: 5 µM compound
T1 construct: RFTS-lacking DNMT1, amino acids 621–1616; made in house
T1 sequence (P26358 621-1616): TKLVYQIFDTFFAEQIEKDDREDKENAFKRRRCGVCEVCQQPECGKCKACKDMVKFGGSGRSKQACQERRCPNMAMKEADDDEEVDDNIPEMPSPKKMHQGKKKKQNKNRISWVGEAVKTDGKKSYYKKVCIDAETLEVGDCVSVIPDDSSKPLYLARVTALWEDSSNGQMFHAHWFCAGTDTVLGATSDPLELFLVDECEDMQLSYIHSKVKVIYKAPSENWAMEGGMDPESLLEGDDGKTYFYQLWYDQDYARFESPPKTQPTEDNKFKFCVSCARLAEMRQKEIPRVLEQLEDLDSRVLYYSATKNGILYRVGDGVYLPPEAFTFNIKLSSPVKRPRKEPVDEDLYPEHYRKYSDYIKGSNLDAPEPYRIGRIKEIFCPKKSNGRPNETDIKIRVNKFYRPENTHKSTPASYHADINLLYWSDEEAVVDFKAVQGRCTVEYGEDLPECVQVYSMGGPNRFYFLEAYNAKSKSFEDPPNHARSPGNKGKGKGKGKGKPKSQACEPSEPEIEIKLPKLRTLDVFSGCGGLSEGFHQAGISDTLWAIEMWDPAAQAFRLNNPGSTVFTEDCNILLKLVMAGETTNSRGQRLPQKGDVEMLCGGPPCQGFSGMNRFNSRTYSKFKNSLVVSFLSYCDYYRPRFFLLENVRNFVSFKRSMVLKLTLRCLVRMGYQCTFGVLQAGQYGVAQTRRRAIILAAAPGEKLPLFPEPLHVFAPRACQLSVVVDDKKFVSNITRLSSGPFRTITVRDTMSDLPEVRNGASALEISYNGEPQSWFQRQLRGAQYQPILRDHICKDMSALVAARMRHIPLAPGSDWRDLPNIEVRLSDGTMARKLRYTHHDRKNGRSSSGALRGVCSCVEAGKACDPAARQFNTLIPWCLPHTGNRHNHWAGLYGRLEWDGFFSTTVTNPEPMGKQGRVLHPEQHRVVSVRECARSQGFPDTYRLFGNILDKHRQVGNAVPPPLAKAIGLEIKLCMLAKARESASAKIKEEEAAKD
Description: The effect of detergent on observed DNMT1 inhibition was examined using the endonuclease-coupled DNA methylation assay. […] A control containing GlaI in the absence of DNMT1 was subtracted from each assay condition. Corrected assay traces were fitted in Prism.

calf thymus DNA = experiment: DNA intercalation assay (ethidium bromide displacement); assay type: binding; details: 10 µM compound, 15 µg/ml ctDNA, 1.5 µM ethidium bromide; DMSO 2370 ± 190
Protocol: DNA intercalation was assessed by examining the ability of the compounds to displace ethidium bromide from calf thymus DNA (ctDNA; Sigma). Duplicate assays (100 µl) were conducted in black 96 well plates and contained 15 µg/ml ctDNA, 1.5 µM ethidium bromide and 10 µM compound in methylation assay buffer. DMSO was used as a negative control and daunorubicin (Sigma) was used as a positive control. Fluorescence was measured using excitation and emission wavelengths of 320 nm and 600 nm, respectively.

GlaI = GlaI counterscreen; assay type: biochemical; details: 11 µM test compound; for Initial Velocity: 5 nM oligonucleotide 8007, 0.2 U GlaI; for Percent Activity: compared to DMSO
Protocol: GlaI inhibitors were identified and excluded using a fluorescence-based assay. Duplicate assays (80 µl) were conducted in 96 well plates. Assays contained 10 mM Tris-HCl pH 7.5, 100 mM potassium glutamate, 1 mM MgCl2, 1 mM DTT, 0.1 mg/mL BSA, 5% glycerol, 5 nM oligonucleotide 8007 (5′-FAM-CCTATGmCGm[…]mCGmCATAGG-3′-Iowa Black, where mC denotes 5-methyldeoxycytidylate residues, Integrated DNA Technologies, Coralville, IA), 0.2 U GlaI, 11 µM test compound and 1.2% DMSO. Reactions were initiated by the addition of GlaI. Cleavage of the oligonucleotide releases the 5′ FAM fluorophore from the 3′ Iowa Black quencher and generates fluorescence. A control reaction in the absence of GlaI was subtracted from each assay condition to account for background fluorescence of the internally quenched substrate. Corrected time courses were fitted in Prism.

HepG2 cells = test system: HepG2 cells; design: method as in PMID 22939515; details: cited from earlier work
[2] = molecular target: T1, DNMT1 (amino acids 621–1616); experiment: Concentration-dependence (IC50), endonuclease-coupled DNA methylation assay; assay type: biochemical; details: for IC50: 10 µM SAM, 20 nM oligonucleotide 8006, 2 nM DNMT1, 95% confidence interval in brackets
Protocol: IC50 values for each validated direct inhibitor were determined under identical assay conditions (10 µM SAM and 20 nM oligonucleotide 8006) using the endonuclease-coupled DNA methylation assay in triplicate (80 µl) in a 96 well format. Assays contained 0.8 U GlaI, 2 nM DNMT1 (amino acids 621–1616) and 0.94% DMSO with inhibitor concentration varied from 0 to 10 µM. FAM fluorescence was measured in a Biotek Neo plate reader over the course of 45 minutes. A control containing GlaI in the absence of DNMT1 was subtracted from each assay condition. Corrected assay traces were fitted in Prism and percent activity was determined by comparing to a DMSO containing control. IC50 values were determined by fitting the percent activity data using a unity Hill slope in Prism.

[3] = test system: Rgs6−/− mouse embryonic fibroblasts; design: method as in PMID 23995786; details: murine Rgs6−/− mouse embryonic fibroblasts; cited from earlier work
DNMT1 = details: cited from earlier work
[4] = test system: MCF-7 breast cancer cells; details: cited from earlier work
[5] = absence of 0.01% Triton X-100, read-out: Percent activity, 0.01% Triton X-100 -
[6] = presence of 0.01% Triton X-100, read-out: Percent activity, 0.01% Triton X-100 +

Compound | remaining activity at 5 µM [1, 5] | remaining activity at 5 µM [1, 6] | RFU (ethidium bromide fluorescence) (calf thymus DNA) | Initial Velocity (GlaI) | levels of DNA methylation (HepG2 cells) | Percent Activity (GlaI) | IC50 [2] | DNMT1-dependent oncogenic transformation and apoptosis [3] | potency relative to alizarin (cmpd 26) ([2]; more potent than alizarin) | mechanism of inhibition (DNMT1) | expression of methylation-silenced genes [4]
Oc1cc(Cl)ccc1Oc1ccc(Cl)cc1Cl [Cmpd 13, triclosan] | 52% | 48% | 2406 ± 5 RFU | 28 ± 2 RFU/min | reduced the levels of DNA methylation | – | – | – | – | – | –
O=C(O)c1cc(O)c2c(c1)[C@@H]([C@H]1c3cc(C(=O)O)cc(O)c3C(=O)c3c(O[C@H]4O[C@H](CO)[C@@H](O)[C@H](O)[C@H]4O)cccc31)c1cccc(O[C@H]3O[C@H](CO)[C@@H](O)[C@H](O)[C@H]3O)c1C2=O [Cmpd 22] | 7% | 9% | 2415 ± 150 RFU | 24 ± 1 RFU/min | – | 86% | 470 nM | – | – | – | –
CC1/C=C/C=C/C=C/C=C/C=C/C=C/C=C/C(O[C@@H]2O[C@H](C)[C@H](O)[C@@H](O)[C@@H]2N)CC(O)C(C(=O)O)C(O)CC(=O)CC(O)CC(O)CC(O)CC(=O)CCCC(=O)CC(=O)OC1C(C)CC(C)C(O)CC(=O)c1ccc(N)cc1 (stereo partly drawn) [Cmpd 24] | 0% | 0% | 2389 ± 64 RFU | 27 ± 1 RFU/min | – | – | 400 nM | – | – | – | –
O=C1c2ccccc2C(=O)c2c1ccc(O)c2O [Cmpd 26, alizarin] | 67% | 63% | 2364 ± 30 RFU | 22 ± 1 RFU/min | – | 79% | – | – | – | – | –
CSc1nc2cc(Cl)c(Oc3cccc(Cl)c3Cl)cc2[nH]1 [Cmpd 29, triclabendazole] | 52% | 46% | 2500 ± 144 RFU | 22 ± 2 RFU/min | – | 79% | – | – | – | – | –
O=c1c(O)c(-c2ccc(O)c(O)c2)oc2c(O)c(O)cc(O)c12 [Cmpd 33] | 53% | 47% | 2524 ± 45 RFU | 27 ± 2 RFU/min | – | – | – | – | – | – | –
O=C(O)c1cc(O)c2c(c1)[C@@H]([C@@H]1c3cc(C(=O)O)cc(O)c3C(=O)c3c(O[C@H]4O[C@H](CO)[C@@H](O)[C@H](O)[C@H]4O)cccc31)c1cccc(O[C@H]3O[C@H](CO)[C@@H](O)[C@H](O)[C@H]3O)c1C2=O [Cmpd 36] | 0% | 0% | 2309 ± 60 RFU | 28 ± 1 RFU/min | – | – | – | – | – | – | –
CC(=O)NCCc1ccc(O)c(-c2c(O)c(O)c3c(c2O)C(=O)c2c(cc(O)c(C(=O)O)c2C(=O)O)C3=O)c1 [Cmpd 40, Laccaic acid A] | 56% | 58% | 2311 ± 148 RFU | 22 ± 3 RFU/min | – | 79% | – | reverses DNMT1-dependent oncogenic transformation and apoptosis | ~5 fold | DNA-competitive inhibitor | reactivates expression of a set of methylation-silenced genes
O=C(O)C(S)C(S)C(=O)O (stereo not drawn) [Cmpd 51] | 10% | 8% | 2525 ± 200 RFU | 25 ± 1 RFU/min | – | 89% | – | – | – | – | –
